{"source": "paper PMC7274485", "about": "“A symbiotic bacterium of shipworms produces a compound with broad spectrum anti-apicomplexan activity” (PLoS Pathogens, 2020)", "key": {"[1]": {"test_system": "T. gondii", "test": "Intracellular T. gondii growth inhibition, luciferase expression in HFF cells", "format": "cell-based", "conditions": "Toxoplasma gondii; luciferase expressing RH or ME49 strain in HFF cells; trtE added 24 hours post-infection, read 24 hours later; purification method 1 or 2; read-out: EC50 against intracellular T. gondii", "description": "To obtain sufficient trtE for in vitro and in vivo experiments, bacterial growth conditions were optimized, and a modified purification method was developed and validated by ESI-HRMS, LC/MS/MS and NMR (purification method 2; see methods and S8–S9 Figs). To determine the effective concentration at which trtE inhibited the growth of 50% of T. gondii parasites (EC50), HFF cells were seeded into 96 well plates and infected with luciferase expressing T. gondii tachyzoites. 24 hours post-infection two-fold serial dilutions of trtE, purified by method 1 or method 2, or DMSO vehicle control were added to the infected cells. 24 hours later, the infected cells were lysed and parasite growth quantified by luciferase expression. The EC50 of trtE against intracellular T. gondii was determined to be 3 nM regardless of purification method.\nT. gondii parasite lines were maintained by passage in HFFs as previously described. […] Growth was monitored by luciferase expression using Bright-glo Luciferase assay system (Promega Corp., Madison, WI). […] Infected cells were then incubated for 72 hours before growth was quantified by luciferase expression. […]"}, "[2]": {"test_system": "Babesia bovis", "test": "B. bovis-infected erythrocyte proliferation, SYBR green incorporation", "format": "cell-based", "conditions": "in Bos taurus, infected erythrocytes, 72 hours, read-out: EC50 against B. bovis", "description": "(§1) B. bovis and B. bigemina inhibitor response assays were adapted from components of [79–81]. B. bovis and B. bigemina parasites were maintained in bovine erythrocytes under microaerophilic stationary phase conditions in vitro as described elsewhere. Prior to use in growth studies parasites were grown in erythrocytes from which leukocytes were depleted. Cultures were set up at 0.20% parasitized erythrocytes, in quadruplicate, in complete medium supplemented with trtE. Final concentration of DMSO in all cultures was 1%, and was consistent throughout. Following 72h growth under 90% nitrogen, 5% oxygen, 5% carbon dioxide cells were harvested by thorough resuspension, and transferred to a black, opaque 96-well plate. Cells were freeze-thawed at -80°C overnight, then mixed with an equal volume of SYBR Green lysis buffer. Lysis buffer was composed of 20 mM Tris, pH 7.5, 5 mM EDTA, 0.008% (w/v) saponin, 0.08% (v/v) NP40, and contained 0.2 μl 10,000x SYBR Green I dye ml^-1 (S7563; Invitrogen; Carlsbad, CA). Plates were incubated for one hour at room temperature in the dark prior to reading in a microplate reader, at 485 nm excitation and 528 nm emission wavelengths."}, "[3]": {"test_system": "B. bigemina", "test": "B. bigemina-infected erythrocyte proliferation, SYBR green incorporation", "format": "cell-based", "conditions": "Babesia bigemina, infected erythrocytes, 72 hours, read-out: EC50 against B. bigemina", "description": "as §1"}, "[4]": {"test_system": "Sarcocystis neurona", "test": "Sarcocystis neurona GFP/Luc merozoite growth in bovine turbinate cells, luciferase expression", "format": "cell-based", "conditions": "24 hours treatment, read-out: EC50 against S. neurona", "description": "Culture of Sarcocystis neurona GFP/Luc merozoites in bovine turbinate cells and in vitro drug response assays were conducted as previously described.\nA. Bovine turbinate cells infected with luciferase expressing Sarcocystis neurona merozoites were treated with trtE for 24 hours and parasite growth evaluated by luciferase expression. […] B. Theileria equi-infected erythrocytes were incubated with trtE or DMSO vehicle control and proliferation was measured after 72 hours by SYBR green incorporation. Percent proliferation was calculated relative to DMSO treated controls. […] (DOCX) Click here for additional data file."}, "[5]": {"test_system": "Gram positive bacteria", "conditions": "at μM concentrations; cited from earlier work"}, "[6]": {"test_system": "Human Foreskin fibroblasts", "test": "Cytotoxicity for host cells, cellular ATP (CellTiter-Glo): HFF", "protocol": "Toxicity was evaluated by measuring cellular ATP concentrations.\nHCT8, HFF and BT cells were seeded in 96-well plates to achieve 20–30% confluence after 24 hours of growth."}}}
{"compound": "CC1CCC=CC=CCCC(O)CC(=O)CC2CCC(C)C3(O2)O[B-]24OC(C(=O)O1)C1(OC(CCC1C)CC(=O)CC(O)CCC=CC=CCCC(C)OC(=O)C3O2)O4", "note": "(stereo not shown) [trtE, tartrolon E]", "values": [{"measurement": "EC50", "setting": "[1]", "result": 0.003, "unit": "µM"}, {"measurement": "EC50", "setting": "[2]", "result": 0.0159, "unit": "µM"}, {"measurement": "EC50", "setting": "[3]", "result": 0.0093, "unit": "µM"}, {"measurement": "EC50", "setting": "[4]", "result": 0.0129, "unit": "µM"}, {"measurement": "Activity of trtE against Gram positive bacteria", "setting": "[5]", "result": "active"}, {"measurement": "TC50 (median toxic concentration) for HFF", "setting": "[6]; 20–30% confluency, 24 hours, cellular ATP", "result": 7.9, "unit": "µM"}, {"measurement": "Selectivity Index, T. gondii vs Human Foreskin fibroblasts", "setting": "[6]; TC50/EC50", "result": 2633}]}
